Results taken from patent publication US20140023611A1 (priority 2010, published 2014).

Key:
[1] = Stability of compounds in simulated gastric fluid (SGF); assay type: in vitro ADME; details: simulated gastric fluid (3 mg/mL pepsin), incubation time 6 hr, relative to t=0
In short: (§1)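 Compounds at […] were incubated 3 or 6 hr in USP simulated gastric fluid with 3 mg/mL pepsin or simulated intestinal fluid with 3 mg/mL pancreatin. Remaining compound was quantified by HPLC-UV or HPLC-MS peak area % and reported as percent of the t=0 level in the same medium.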

[2] = Determination of compound Cmax and AUC after oral gavage (plasma LC-MS/MS); assay type: in vivo, Sprague-Dawley rats; details: Sprague-Dawley, rat, plasma, po, Structure (I) examples
In short: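 Sprague-Dawley rats dosed by oral gavage at nominal 2.5 or 10 mg/kg; blood drawn at 0.5, 1, 2 and 4 h into K2EDTA. Plasma protein-precipitated with acetonitrile plus internal standard and analysed by LC-MS/MS against a plasma standard curve to derive Cmax and AUC.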

[3] = target: T1, human NaP2b (SLC34A2) (Homo sapiens, UniProt O95436); assay: Inhibition of NaP2b-mediated Pi (33P) uptake in transfected HEK293 cells, human NaP2b; assay type: cell-based; details: read-out: pIC50 range for human NaP2b (converted)
T1 construct: host or cells: HEK293
T1 sequence (O95436 1-690): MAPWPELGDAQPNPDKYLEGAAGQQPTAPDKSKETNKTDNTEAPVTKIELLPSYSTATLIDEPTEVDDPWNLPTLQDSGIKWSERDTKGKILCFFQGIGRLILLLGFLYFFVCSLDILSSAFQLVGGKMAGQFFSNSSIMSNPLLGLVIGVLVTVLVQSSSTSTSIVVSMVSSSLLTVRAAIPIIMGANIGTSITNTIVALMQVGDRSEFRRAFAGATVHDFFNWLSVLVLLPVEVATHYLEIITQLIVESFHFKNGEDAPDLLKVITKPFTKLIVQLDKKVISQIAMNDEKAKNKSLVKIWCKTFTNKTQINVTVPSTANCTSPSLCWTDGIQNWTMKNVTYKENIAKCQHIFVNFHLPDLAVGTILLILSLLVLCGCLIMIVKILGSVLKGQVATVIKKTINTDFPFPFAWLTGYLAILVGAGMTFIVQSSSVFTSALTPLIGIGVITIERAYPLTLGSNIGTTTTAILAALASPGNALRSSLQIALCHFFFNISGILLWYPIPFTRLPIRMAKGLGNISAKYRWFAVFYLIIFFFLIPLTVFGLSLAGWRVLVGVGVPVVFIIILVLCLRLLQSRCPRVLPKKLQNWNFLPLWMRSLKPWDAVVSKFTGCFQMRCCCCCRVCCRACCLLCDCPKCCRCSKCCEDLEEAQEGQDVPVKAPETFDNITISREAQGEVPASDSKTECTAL
In short: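 HEK293 cells transiently transfected with human NaP2b (Thr inserted after residue 37, N39D), endogenous PiT transport pharmacologically silenced. Sodium or choline buffer, pH 7.4, with 100 uM KH2PO4, 33P orthophosphate and compound (0.1 nM–30 uM, twelve concentrations, duplicate). 3-30 min at room temperature, scintillation counting, pIC50 derived.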

[4] = Stability of compounds in simulated intestinal fluid (SIF); assay type: in vitro ADME; details: simulated intestinal fluid (3 mg/mL pancreatin), incubation time 6 hr, relative to t=0
In short: as §1

[5] = target: T2, rat NaP2b (SLC34A2) (Rattus norvegicus, UniProt Q9JJ09); assay: Inhibition of NaP2b-mediated Pi (33P) uptake in transfected HEK293 cells, rat NaP2b; assay type: cell-based; details: 33P Pi uptake, 0.1 mM phosphate, value given as pIC50 range
T2 construct: host or cells: HEK293
T2 sequence (Q9JJ09 1-695): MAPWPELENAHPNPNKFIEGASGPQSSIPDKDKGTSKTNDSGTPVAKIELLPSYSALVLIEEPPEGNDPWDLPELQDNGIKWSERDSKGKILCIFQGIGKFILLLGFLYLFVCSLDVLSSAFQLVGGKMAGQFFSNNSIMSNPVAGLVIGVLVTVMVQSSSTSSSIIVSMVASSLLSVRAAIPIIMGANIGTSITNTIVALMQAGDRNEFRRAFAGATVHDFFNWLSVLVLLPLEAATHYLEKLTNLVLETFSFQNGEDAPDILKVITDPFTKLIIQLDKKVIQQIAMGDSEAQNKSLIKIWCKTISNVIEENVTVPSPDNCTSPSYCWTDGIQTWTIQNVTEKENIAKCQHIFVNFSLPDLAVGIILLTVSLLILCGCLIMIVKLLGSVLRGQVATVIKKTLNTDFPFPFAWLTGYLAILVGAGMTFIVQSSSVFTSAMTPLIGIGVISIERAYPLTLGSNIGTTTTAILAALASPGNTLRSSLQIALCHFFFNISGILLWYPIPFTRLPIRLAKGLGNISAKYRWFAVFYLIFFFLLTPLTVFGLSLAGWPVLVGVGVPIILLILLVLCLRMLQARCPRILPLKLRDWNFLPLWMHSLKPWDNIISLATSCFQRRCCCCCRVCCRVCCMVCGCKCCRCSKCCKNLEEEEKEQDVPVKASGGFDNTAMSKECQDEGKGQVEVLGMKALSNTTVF
In short: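 HEK293 cells were transiently transfected with NaP2b cDNA using Lipofectamine and grown near confluence. Compounds were tested at twelve concentrations from 0.1 nM to 30 uM in duplicate, and 33P-phosphate uptake was counted by scintillation after lysis. Results are expressed as pIC50.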

[6] = Table 15, actual oral dose 3-15 mg/kg, plasma 0.5-4 h
[7] = Table 15, actual oral dose 15-40 mg/kg, plasma 0.5-4 h

| SMILES | % remaining, SGF [1] | AUC [2, 6] | Cmax [2, 6] | IC50 [3] | % remaining, SIF [4] | IC50 [5] | AUC [2, 7] | Cmax ([2]; Table 15, plasma 0.5-4 h) |
| --- | --- | --- | --- | --- | --- | --- | --- | --- |
| O=C(O)c1cccc(SCc2cccc(C(=O)Nc3ccc(Cl)cc3-c3cc(C(=O)NCc4cccc(C(F)(F)F)c4)ccn3)c2)c1 [Example 8.25, 3-(3-(4-chloro-2-(4-(3-(trifluoromethyl)benzylcarbamoyl)pyridin-2-yl)phenylcarbamoyl)benzylthio)benzoic acid] | >80% | > 50 ng·h/mL | < 30 ng/mL | < 1000 nM | >80% | 1000 to 7940 nM | – | – |
| O=C(O)CCOCCOCCOCCOCCCc1cccc(C(=O)Nc2ccc(Cl)cc2-c2cc(C(=O)N[C@H]3CCCc4ccccc43)ccn2)c1 [Example 253, (S)-16-(3-(4-(chloro)-2-(4-(1,2,3,4-tetrahydronaphthalen-1-ylcarbamoyl)pyridin-2-yl)phenylcarbamoyl)phenyl)-4,7,10,13-tetraoxahexadecan-1-oic acid] | 60-80% | – | – | < 1000 nM | >80% | < 1000 nM | < 10 ng·h/mL | < 10 ng/mL |
| COCCNC(=O)[C@H]1CCCN(C(=O)c2cccc(C(=O)Nc3ccc(N4CCCCC4)cc3-c3cc(C(=O)N[C@H]4CCCc5ccccc54)ccn3)c2)C1 [Example 254, 2-(2-(3-((S)-3-(2-methoxyethylcarbamoyl)piperidine-1-carbonyl)benzamido)-5-(piperidin-1-yl)phenyl)-N—((S)-1,2,3,4-tetrahydronaphthalen-1-yl)isonicotinamide] | >80% | < 10 ng·h/mL | < 10 ng/mL | < 1000 nM | >80% | < 1000 nM | – | – |
| CN(CCCN1CCOCC1)C(=O)c1cccc(C(=O)Nc2ccc(N3CCCCC3)cc2-c2cc(C(=O)N[C@H]3CCCc4ccccc43)ccn2)c1 [Example 126, (S)—N1-methyl-N1-(3-morpholinopropyl)-N3-(4-(piperidin-1-yl)-2-(4-(1,2,3,4-tetrahydronaphthalen-1-ylcarbamoyl)pyridin-2-yl)phenyl)isophthalamide] | >80% | < 30 ng·h/mL | < 10 ng/mL | 1000 to 7940 nM | >80% | < 1000 nM | – | – |
| CCN(CC)c1ccc(NC(=O)c2cccc(CSCCOCCOCCOCCOCCC(=O)N(CCO)CCO)c2)c(-c2cc(C(=O)N[C@H]3CCCc4ccccc43)ccn2)c1 [Example 160, (S)-2-(5-(diethylamino)-2-(3-(20-hydroxy-18-(2-hydroxyethyl)-17-oxo-5,8,11,14-tetraoxa-2-thia-18-azaicosyl)benzamido)phenyl)-N-(1,2,3,4-tetrahydronaphthalen-1-yl)isonicotinamide] | >80% | < 10 ng·h/mL | < 10 ng/mL | < 1000 nM | 40-60% | < 1000 nM | – | – |
| CCN(CC)c1ccc(NC(=O)c2cccc(C(=O)N(C)CCN(C)CCOCCOCCOCCNC(=O)OC(C)(C)C)c2)c(-c2cc(C(=O)N[C@H]3CCCc4ccccc43)ccn2)c1 [Example 339, (S)-tert-Butyl 1-(3-(4-(diethylamino)-2-(4-(1,2,3,4-tetrahydronaphthalen-1-ylcarbamoyl)pyridin-2-yl)phenylcarbamoyl)phenyl)-2,5-dimethyl-1-oxo-8,11,14-trioxa-2,5-diazahexadecan-16-ylcarbamate] | <20% | < 30 ng·h/mL | < 10 ng/mL | < 1000 nM | >80% | < 1000 nM | – | – |

Further lines, results first:

| % remaining, SGF [1] | AUC [2, 6] | Cmax [2, 6] | IC50 [3] | % remaining, SIF [4] | IC50 [5] | AUC [2, 7] | Cmax ([2]; Table 15, plasma 0.5-4 h) | SMILES |
| --- | --- | --- | --- | --- | --- | --- | --- | --- |
| >80% | < 30 ng·h/mL | < 10 ng/mL | < 1000 nM | >80% | < 1000 nM | – | – | CCN(CC)c1ccc(NC(=O)c2cccc(COCCOCCOCCOCCOCCOCCO)c2)c(-c2cc(C(=O)NCc3cccc(C(F)(F)F)c3)ccn2)c1 [Example 168, 2-(5-(diethylamino)-2-(3-(19-hydroxy-2,5,8,11,14,17-hexaoxanonadecyl)benzamido)phenyl)-N-(3-(trifluoromethyl)benzyl)isonicotinamide] |
| >80% | > 50 ng·h/mL | > 50 ng/mL | 1000 to 7940 nM | >80% | 1000 to 7940 nM | – | – | CCN(CC)c1ccc(NC(=O)c2cccc(C(=O)N(C)CCN3CCC[C@H]3C(=O)NCCOCCOCCOCCOCCOCCOCCOCCOC)c2)c(-c2cc(C(=O)N[C@H]3CCCc4ccccc43)ccn2)c1 [Example 196, N^1-(2-((S)-2-(2,5,8,11,14,17,20,23-octaoxapentacosan-25-ylcarbamoyl)pyrrolidin-1-yl)ethyl)-N^3-(4-(diethylamino)-2-(4-(((S)-1,2,3,4-tetrahydronaphthalen-1-yl)carbamoyl)pyridin-2-yl)phenyl)-N-methylisophthalamide] |
| 60-80% | – | – | < 1000 nM | >80% | < 1000 nM | < 30 ng·h/mL | < 30 ng/mL | CN(CCOCCOCCOCCC(=O)O)C(=O)Cc1cccc(SCc2cccc(C(=O)Nc3ccc(Cl)cc3-c3cc(C(=O)N[C@H]4CCCc5ccccc54)ccn3)c2)c1 [Example 239, (S)-1-(3-(3-(4-chloro-2-(4-(1,2,3,4-tetrahydronaphthalen-1-ylcarbamoyl)pyridin-2-yl)phenylcarbamoyl)benzylthio)phenyl)-3-methyl-2-oxo-6,9,12-trioxa-3-azapentadecan-15-oic acid] |
